Laboratory results taken from US20210255167A1, “COMPOSITIONS AND METHODS FOR ASSESSING TOXICITY USING DYNAMIC BH3 PROFILING” (Dana-Farber Cancer Institute, Inc., priority 2015, published 2021).

Each molecule was assayed on adult mouse hepatocytes.
From the text: In some aspects, methods provided herein relate to determining the toxicity of an agent in a sample of cells. In some embodiments, the toxicity of the agent can be determined by determining a value for delta percent priming. As used herein, “delta percent priming” refers to the extent to which an agent shifts a cell closer to the threshold of apoptosis. In some embodiments, normalized values of MOMP (e.g., percent BH3 domain peptide-induced MOMP, or “% MOMP”) are used to determine a value for delta percent priming. In such embodiments, the value for delta percent priming can be calculated using the equation:
Delta Percent Priming=(% MOMPTEST)−(% MOMPCONTROL),
where “% MOMPTEST” represents the value for percent BH3 domain peptide-induced MOMP determined in a test aliquot (cells contacted with the agent); and “% MOMPCONTROL” represents the value for percent BH3 domain peptide-induced MOMP determined in a control aliquot (cells not contacted with the agent).
Next, various drug compounds were tested to assess the extent of drug-induced increased cell death sensitivity in adult mouse hepatocytes. Freshly isolated adult mouse hepatocytes were treated with different drugs for 20 hours, and the loss of cytochrome c induced by a single concentration of the synthetic Bim BH3 peptide was subsequently assessed by immunofluorescence (FIGS. 5A-D). Increase in cell death sensitivity is indicated by loss of cytochrome c, which is quantified as an increase in apoptotic sensitivity (delta priming, FIG. 5E).

| SMILES | apoptotic sensitivity (delta priming) |
| --- | --- |
| CC1(C)CCC(c2ccc(Cl)cc2)=C(CN2CCN(c3ccc(C(=O)NS(=O)(=O)c4ccc(N[C@H](CCN5CCOCC5)CSc5ccccc5)c(S(=O)(=O)C(F)(F)F)c4)cc3)CC2)C1 [Navitoclax] | increase apoptotic sensitivity |
| COc1cccc2c1C(=O)c1c(O)c3c(c(O)c1C2=O)C[C@@](O)(C(=O)CO)C[C@@H]3O[C@H]1C[C@H](N)[C@H](O)[C@H](C)O1 [doxorubicin] | increase apoptotic sensitivity |
| C=CCNC1=C2C[C@@H](C)C[C@H](OC)[C@H](O)[C@@H](C)/C=C(\C)[C@H](OC(N)=O)[C@@H](OC)/C=C\C=C(/C)C(=O)NC(=CC1=O)C2=O [tanespimycin] | increase apoptotic sensitivity |
